Test results reported in patent US8288367B2, “Substituted estratriene derivatives as 17BETA HSD inhibitors” (Solvay Pharmaceuticals GmBH, priority 2006, dated 2012).

Tests used:
[1] = biological target: T1, recombinant human 17β-HSD2 (Homo sapiens, UniProt P37059); assay: Recombinant 17β-HSD2 assay (HPLC, 3H-estradiol conversion); format: biochemical; conditions: 50 nM estradiol, 1 mM β-NAD, read-out: Inhibition of rec. 17β-HSD2; for inhibition at 0.1 µM: 100 nM compound; for inhibition at 1 µM: 1 μm compound
T1 construct: made in house; host or cells: Sf9 insect cells (baculovirus, Bac to Bac Expression System)
T1 sequence (P37059 1-387): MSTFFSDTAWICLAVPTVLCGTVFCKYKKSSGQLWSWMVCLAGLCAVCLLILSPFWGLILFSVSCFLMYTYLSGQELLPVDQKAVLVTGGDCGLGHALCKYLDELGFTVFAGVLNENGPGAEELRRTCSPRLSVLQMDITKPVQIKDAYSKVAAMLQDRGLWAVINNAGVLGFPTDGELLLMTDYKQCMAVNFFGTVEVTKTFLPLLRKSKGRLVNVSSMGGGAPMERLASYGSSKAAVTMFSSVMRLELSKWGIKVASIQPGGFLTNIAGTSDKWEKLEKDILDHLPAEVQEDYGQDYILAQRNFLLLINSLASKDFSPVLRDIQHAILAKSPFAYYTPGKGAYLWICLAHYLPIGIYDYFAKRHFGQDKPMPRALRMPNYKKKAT
Summary of the method: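 Homogenate of Sf9 cells expressing recombinant human 17β-HSD2 (6 μg/ml protein) incubated with 50 nM estradiol plus 3H-estradiol tracer and 1 mM β-NAD. Estrone and estradiol radioactivity separated by HPLC; % inhibition = 100 − % conversion to estrone.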

[2] = biological target: T2, recombinant human 17β-HSD1 (Homo sapiens, UniProt P14061); assay: Recombinant 17β-HSD1 assay (HPLC, 3H-estrone conversion); format: biochemical; conditions: 30 nM estrone, 1 mM NADPH, 30 min RT, read-out: Inhibition of rec. 17β-HSD1; for inhibition at 0.1 µM: 100 nM compound; for inhibition at 1 µM: 0.5 h, 1 μm compound
T2 construct: made in house; host or cells: Sf9 insect cells (baculovirus, Bac to Bac Expression System)
T2 sequence (P14061 1-328): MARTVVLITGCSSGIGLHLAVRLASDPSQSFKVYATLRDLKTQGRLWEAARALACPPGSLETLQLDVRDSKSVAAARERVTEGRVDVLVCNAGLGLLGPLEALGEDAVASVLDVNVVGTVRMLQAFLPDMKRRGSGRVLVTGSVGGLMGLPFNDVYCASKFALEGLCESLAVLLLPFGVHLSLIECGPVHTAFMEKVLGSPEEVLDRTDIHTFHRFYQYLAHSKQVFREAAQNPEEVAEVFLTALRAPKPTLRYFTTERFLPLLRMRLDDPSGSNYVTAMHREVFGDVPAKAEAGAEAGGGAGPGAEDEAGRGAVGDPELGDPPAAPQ
Summary of the method: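 Sf9-expressed human 17β-HSD1 homogenate (0.1 μg/ml) in 20 mM KH2PO4 pH 7.4 with 30 nM estrone plus 3H-estrone tracer and 1 mM NADPH, 30 min at RT, inhibitors at 1 μM or 0.1 μM. Stopped with TCA; estrone and estradiol separated by reverse-phase HPLC with flow scintillation; % inhibition = 100 − % conversion.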

[3] = biological target: T3, 17β-HSD3 enzyme (Homo sapiens, UniProt P37058); assay: Inhibition of 17β-HSD type 3 enzyme in MCF-7 cells stably expressing 17β-HSD3 (HPLC); format: cell-based; conditions: MCF7, MCF-7 cells expressing 17β-HSD3, 2 nM androstenedione; for inhibition at 1 µM: 1 μM compound; for inhibition at 10 µM: 10 μM compound
T3 construct: expressed in transfected cells; host or cells: MCF-7 cell lines stably expressing 17β-HSD3
T3 sequence (P37058 1-310): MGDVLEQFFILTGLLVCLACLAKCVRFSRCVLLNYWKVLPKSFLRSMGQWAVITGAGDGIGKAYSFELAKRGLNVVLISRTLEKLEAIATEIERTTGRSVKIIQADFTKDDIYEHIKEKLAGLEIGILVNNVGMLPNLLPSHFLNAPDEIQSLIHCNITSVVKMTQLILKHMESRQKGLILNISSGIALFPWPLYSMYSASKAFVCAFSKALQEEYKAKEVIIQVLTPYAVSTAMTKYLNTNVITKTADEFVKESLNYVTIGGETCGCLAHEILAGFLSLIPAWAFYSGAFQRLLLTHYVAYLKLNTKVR
Procedure: The compounds were screened in respect of 17β-HSD3 enzyme activity in vitro on established MCF-7 cell lines, each stably expressing the 17β-HSD3 enzyme. The interconversion of substrate by 17β-HSD3 and the 17β-HSD3 inhibiting activity of chemical compounds in these cell lines were detected by HPLC system.
Varying amounts of the test compounds were incubated in the growth medium of the 17β-HSD3 expressing cells together tritium labeled androstenedione (2 nM). The medium samples were removed after exact incubation time and the reaction is stopped by trichloroacetic acid (TCA). The samples were analyzed by HPLC-coupled flow scintillation analysis.
Conversion: The 17β-HSD3 inhibiting activity of an individual test compound was calculated by comparing the conversion of a control sample without any test compound (referred to as “Negative Control”) to the (reduced) conversion of the test sample containing the particular compound to be tested (referred to as “Test Sample”).

**Q.** With `CCN(CC)C(=O)CC[C@@H]1CC(F)(F)[C@@]2(C)CC[C@@H]3c4ccc(B(O)O)cc4CC[C@H]3[C@H]12` [Compound 71, [15beta-[3-(diethylamino)-3-oxopropyl]-17,17-difluoroestra-1(10),2,4-trien-3-yl]boronic acid] as the compound, how does the inhibition at 0.1 µM [1] read?
**A.** 7.9%

**Q.** And the inhibition at 1 µM [1]?
**A.** 16.3%

**Q.** And the inhibition at 0.1 µM [2]?
**A.** 78%

**Q.** What about the inhibition at 1 µM [2] of the same compound?
**A.** 85%

**Q.** And the inhibition at 1 µM [3]?
**A.** 31%

**Q.** What about the inhibition at 10 µM [3] of the same compound?
**A.** 60%

**Q.** Which results are given for `COc1ccc(CCN(C)C(=O)CC[C@@H]2CC(F)(F)[C@@]3(C)CC[C@@H]4c5ccc(B(O)O)cc5CC[C@H]4[C@H]23)cc1OC` [Compound 72, [15beta-(3-{[2-(3,4-dimethoxyphenyl)ethyl](methyl)amino}-3-oxopropyl)-17,17-difluoroestra-1(10),2,4-trien-3-yl]boronic acid]?
**A.** inhibition at 0.1 µM [1]: -2.4%; inhibition at 1 µM [1]: 5.3%; inhibition at 0.1 µM [2]: 39%; inhibition at 1 µM [2]: 77%; inhibition at 1 µM [3]: 45%; inhibition at 10 µM [3]: 71%

**Q.** What does the source list for `C[C@]12CC[C@@H]3c4ccc(Nc5ccc6c(c5)S(=O)(=O)C=C6)cc4CC[C@H]3[C@@H]1[C@@H](CCCC(=O)N1CCOCC1)CC2=O` [Compound 91, 3-[(1,1-dioxido-1-benzothien-6-yl)amino]-15alpha-(4-morpholin-4-yl-4-oxobutyl)estra-1(10),2,4-trien-17-one]?
**A.** inhibition at 0.1 µM [1]: 0.7%; inhibition at 1 µM [1]: 5.7%; inhibition at 0.1 µM [2]: 36%; inhibition at 1 µM [2]: 69%; inhibition at 1 µM [3]: 7%; inhibition at 10 µM [3]: 52%
